Where two headings read alike, the source gives them in different places.
How the values were obtained:
[1] = tested on: Breast carcinoma MDA-MB-453; test: MTT proliferation assay, breast carcinoma; type: cell-based; conditions: Homo sapiens, read-out: Mean Percent Inhibition of Growth; for inhibition at 0.625 µM: disulfiram 0.625 μM; for inhibition at 1.25 µM: disulfiram 1.25 μM; for inhibition at 2.5 µM: disulfiram 2.5 μM; for inhibition at 5 µM: disulfiram 5.0 μM
Protocol: (§1) Human malignant cell lines were obtained from American Type Tissue Culture Collection (Rockville, Md.). Melanoma cells lines CRL 1585 and 1619 were cultured in RPMI 1640 (GIBCO-BRL, Life Technologies, Grand Island, N.Y.) with 10% FBS and passed with nonenzymatic Cell Dissociation Solution® (Sigma). The prostate adenocarcinoma cell line CRL 1435 (PC-3) was also cultured in RPMI 1640 with 10% FBS but passed with 0.05% trypsin and 0.53 mM EDTA. The squamous lung carcinoma NCI-H520 and the adenosquamous lung carcinoma NCI-H596 cell lines were grown in RPMI 1640 supplemented with 10% FBS, 10 mM HEPES and 1.0 mM sodium pyruvate and passed with trypsin/EDTA. The small cell lung carcinoma NCI-H82 was cultured as a suspension in RPMI 1640 with 10% FBS. All of the above were grown in a 37° C. humidified environment containing 5% CO2/air. The breast carcinoma cell line MDA-MB-453 was grown in a 37° C. humidified environment with free gas exchange with atmospheric air using Leibovitz's L-15 medium with 2 mM L-glutamine and 10% FBS and was passed with trypsin/EDTA.
(§2) The effect of disulfiram (0.15 to 5.0 μM), diethyldithiocarbamate (DDC, 1.0 μM) or PDTC (0.625 to 5.0 μM) on proliferation of malignant cell lines was studied in cultures stimulated with 10% FBS. Cell numbers were quantitated 24-72 hours later. In some experiments disulfiram or PDTC were added immediately after cells were plated. In other experiments, cells were plated and allowed to grow for 24-72 hours before fresh media with disulfiram or PDTC was added, and cell numbers were assayed 24-72 hours later. Synergy was studied between disulfiram and N,N′-bis(2-chloroethyl-N-nitrosourea (carmustine or BCNU, 1.0 to 1,000 μM) or cisplatin (0.1 to 100 μg/ml) added to medium. The effect of metals on disulfiram was studied with 0.2 to 10 μM copper (provided as CuSO4), zinc (as ZnCl2), silver (as silver lactate) or gold (as HAuCl4.3H2O) ions added to growth medium. No pH changes occurred with addition of metal salts to culture medium. To provide a biologically relevant source of copper, in some experiments medium was supplemented with human ceruloplasmin at doses replicating low and high normal adult serum concentrations (250 and 500 μg/ml).
(§3) Proliferation of cultured cells was quantitated using a previously reported calorimetric method based upon metabolic reduction of the soluble yellow tetrazolium dye 3-[4,5-dimethylthiazol]-2yl-2,5-diphenyl tetrazolium bromide (MTT) to its insoluble purple formazan by the action of mitochondrial succinyl dehydrogenase (See, e.g., S. J. Hirst, et al., “Quantifying proliferation of cultured human and rabbit airway smooth muscle in response to serum and platelet derived growth factor,” Am. J. Respir. Cell Mol. Biol. 7:574-581 (1992); R. Dashtaki, et al. R., supra; S. S. Brar, et al., “Requirement for reactive oxygen species in serum-induced and platelet-derived growth factor-induced growth of airway smooth muscle,” J. Biol. Chem. 274:20017-20026 (1999)). This assay empirically distinguishes between dead and living cells. For proliferation studies, cells were seeded into 24-well uncoated plastic plates (Costar) at 50,000 cells per well and cultured with respective media and mitogens. After 24-96 hours, medium was removed, cells were washed twice with 1 ml of sterile Dulbecco's modified phosphate buffered saline without Ca^2+ or Mg^2+ (DPBS), the medium was replaced with 1 ml/well fresh medium containing 100 μg/ml MTT, and plates were incubated an additional hour. MTT-containing medium was removed, 0.5 ml dimethylsulfoxide (DMSO) was added to each well, and the absorbance of the solubilized purple formazan dye was measured at 540 nm. A total of 4-6 wells were studied at each treatment condition. Preliminary studies were performed with 50-200 μg/ml MTT incubated for 15 minutes to 3 hours to determine the optimum concentration and incubation time at which the rate of conversion was linear and proportional to the number of cells present. […]

[2] = tested on: Adenosquamous lung carcinoma NCI-H596; test: MTT proliferation assay, adenosquamous lung carcinoma; type: cell-based; conditions: Homo sapiens, read-out: Mean Percent Inhibition of Growth; for inhibition at 0.625 µM: disulfiram 0.625 μM; for inhibition at 1.25 µM: disulfiram 1.25 μM; for inhibition at 2.5 µM: disulfiram 2.5 μM; for inhibition at 5 µM: disulfiram 5.0 μM
Protocol: as §1, §2, §3

[3] = section 'Treatment after 24 hours' (breast grown 48 hours), additional 48 hours
[4] = treatment initially, after 48 hours, 10% FBS
[5] = treatment after 24 hours of growth, additional 24 hours

## CCN(CC)C(=S)SSC(=S)N(CC)CC [Disulfiram, tetraethylthiuram disulfide]
[1]; [3]
  inhibition at 0.625 µM: 26 ± 5%
  inhibition at 1.25 µM: 26 ± 2%
  inhibition at 2.5 µM: 39 ± 2%
  inhibition at 5 µM: 46 ± 4%
[1]; [4]
  inhibition at 0.625 µM: 69 ± 4%
  inhibition at 1.25 µM: 94 ± 2%
  inhibition at 2.5 µM: 100%
  inhibition at 5 µM: 100%
[2]; [5]
  inhibition at 0.625 µM: 30 ± 3%
  inhibition at 1.25 µM: 30 ± 3%
  inhibition at 2.5 µM: 29 ± 1%
  inhibition at 5 µM: 34 ± 3%
[2]; [4]
  inhibition at 0.625 µM: 47 ± 4%
  inhibition at 1.25 µM: 57 ± 4%
  inhibition at 2.5 µM: 50 ± 3%
  inhibition at 5 µM: 50 ± 4%

From patent publication US6548540B2, “Method of treating cancer using dithiocarbamate derivatives” (Charlotte-Mecklenburg Hospital Authority, priority 1998, dated 2003)
